Broadly, the EC50 is the concentration at which the effect is half-maximal.

T2 sequence (P10636 1-441 isoform P10636-8): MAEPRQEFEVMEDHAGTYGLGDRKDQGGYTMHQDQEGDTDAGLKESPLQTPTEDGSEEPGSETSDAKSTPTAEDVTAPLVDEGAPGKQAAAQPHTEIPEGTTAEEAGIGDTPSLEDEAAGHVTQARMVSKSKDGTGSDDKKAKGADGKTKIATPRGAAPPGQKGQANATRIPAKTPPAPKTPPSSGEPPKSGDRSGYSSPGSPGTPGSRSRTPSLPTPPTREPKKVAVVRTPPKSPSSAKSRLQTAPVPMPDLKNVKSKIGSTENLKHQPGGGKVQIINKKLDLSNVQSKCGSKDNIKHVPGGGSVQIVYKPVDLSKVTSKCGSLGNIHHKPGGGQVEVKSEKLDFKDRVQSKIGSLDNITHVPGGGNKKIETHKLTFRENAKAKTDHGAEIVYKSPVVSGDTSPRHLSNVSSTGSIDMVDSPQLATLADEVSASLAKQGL

The target of one assay is T1, Tau K18 fragment aggregates (amino acids 244 to 372 of human Tau441) (Homo sapiens, UniProt P10636).
T1 construct: encompassing amino acids 244 to 372 of the longest isoform (2N4R) of human Tau441; purchased Biotechne; host or cells: bacteria
T1 sequence (P10636 561-689): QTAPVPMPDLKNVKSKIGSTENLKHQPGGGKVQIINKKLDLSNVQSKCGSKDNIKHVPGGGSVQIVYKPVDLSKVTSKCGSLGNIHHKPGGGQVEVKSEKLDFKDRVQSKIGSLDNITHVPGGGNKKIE
The assay can be described thus: Tau K18 disaggregation assay by ThT. The class given is biochemical. The note with it: ThT fluorescence; 2 μM K18 aggregates, 30 minutes at RT. As for the experimental part:
Tau K18 Disaggregation Assay by ThT
The Tau K18 fragment, encompassing amino acids 244 to 372 of the longest isoform (2N4R) of human Tau441, was expressed in bacteria and purified (Biotechne). For the K18 disaggregation assay by ThT, 35 μM of recombinant K18 in PBS were aggregated for 24 hours at 37° C. in presence of 25 μM of heparin (Sigma-Aldrich) and 10 mM of 1,4-Dithiothreito (DTT from Sigma-Aldrich) under shaking at 750 RPM. Compound 1 was dissolved in anhydrous dimethyl sulfoxide (DMSO, Sigma-Aldrich) to reach a concentration of 10 mM. K18 aggregates and serial dilutions of compounds were mixed together in PBS (volume 50 μL) to a final concentration of 2 μM of K18 aggregates and from 400 to 0.1 μM of Compound 1. The mixture was incubated for 30 minutes at room temperature (RT), then 40 μL of this mixture were transferred into a black 384-well plate assay (Perkin-Elmer) and mixed with 10 μL of 100 μM ThT in 250 mM glycine (both from Sigma-Aldrich) in PBS. Fluorescence (relative fluorescence units; RFU) was measured in monoplicate or duplicate on a Tecan reader (excitation: 440 nm; emission: 485 nm). Percentage of K18 disaggregation was then calculated and half maximal effective concentration (EC50) was determined using GraphPad Prism version 8 (GraphPad Software) assuming a one-binding site fitting model, see Table 3 and Table 4.
In turn, `O=C(Nc1ccc2nc(N3CCOCC3)oc2c1)c1c[nH]c2ccccc12` [Example 14, N-(2-morpholinobenzo[d]oxazol-6-yl)-1H-indole-3-carboxamide] displayed an EC50 of 10000 to 50000 nM.

On to `O=C(Nc1ccc2nc(N3CCOCC3)oc2c1)c1c[nH]c2ncccc12` [Example 15, N-(2-morpholinobenzo[d]oxazol-6-yl)-1H-pyrrolo[2,3-b]pyridine-3-carboxamide], for which the EC50 was in the range of 10000 to 50000 nM.

The next assay has as its target T2, flTau aggregates (longest isoform of human Tau, 2N4R) (Homo sapiens, UniProt P10636).
T2 construct: 35 μM of recombinant full-length (fl) Tau in phosphate-buffered saline (PBS) were aggregated; purchased Biotechne; host or cells: bacteria
The assay is described as follows: Full-length Tau (flTau) disaggregation assay by Thioflavin T (ThT). In kind it is biochemical. The note with it: ThT fluorescence; 60 nM flTau aggregates, 30 minutes at RT; read-out: flTau disaggregation EC50. As for the experimental part:
Full-Length Tau (flTau) Disaggregation Assay by Thioflavin T (ThT)
The longest isoform of human Tau (2N4R; 441 amino acids) was expressed in bacteria and purified (Biotechne). For the Tau disaggregation assay by ThT, 35 μM of recombinant full-length (fl) Tau in phosphate-buffered saline (PBS) were aggregated for 72 hours at 37° C. in presence of 35 μM of heparin (Sigma-Aldrich) and 10 mM of […] (Sigma-Aldrich) under shaking at 1000 RPM. Compound 1 was dissolved in anhydrous dimethyl sulfoxide (DMSO, Sigma-Aldrich) to reach a concentration of 2.5 mM. flTau aggregates and serial dilutions of compound 1 were mixed together in PBS (volume 50 μL) to a final concentration of 60 nM of flTau aggregates and from 20 to 0.0012 μM of Compound 1. The mixture was incubated for 30 minutes at room temperature (RT), then 40 μL of this mixture were transferred into a black 384-well plate assay (Perkin-Elmer) and mixed with 10 μL of 20 μM ThT in 250 mM glycine (both from Sigma-Aldrich) in PBS. Fluorescence (relative fluorescence units; RFU) was measured in monoplicate or duplicate on a Tecan reader (excitation: 440 nm; emission: 485 nm). Percentage of flTau disaggregation was then calculated and the half maximal effective concentration (EC50) was determined using GraphPad Prism version 8 (GraphPad Software) assuming a one-binding site fitting model, see Table 3 and Table 4.
With `c1ccc2c(N3CCN(c4ccc5oc(N6CCOCC6)nc5c4)CC3)n[nH]c2c1` [Example 79, 5-(4-(1H-indazol-3-yl)piperazin-1-yl)-2-morpholinobenzo[d]oxazole], the half-maximal effective concentration (EC50) is under 1000 nM.

With `COC1CCN(c2nc3cc(N4CCC(c5n[nH]c6ccccc56)CC4)ccc3o2)CC1` [Example 80, 5-(4-(1H-indazol-3-yl)piperidin-1-yl)-2-(4-methoxypiperidin-1-yl)benzo[d]oxazole], the concentration for a half-maximal effect (EC50) is 1000 to 10000 nM.

As for `Cn1cc(C2CCN(c3ccc4sc(N5CCOCC5)nc4c3)C2)c2cc(F)cnc21` (stereo not drawn) [Example 81, 4-(5-(3-(5-fluoro-1-methyl-1H-pyrrolo[2,3-b]pyridin-3-yl)pyrrolidin-1-yl)benzo[d]thiazol-2-yl)morpholine], the concentration giving a half-maximal response (EC50) was under 1000 nM.

Take `Cn1cc(C2CCN(c3ccc4nc(N5CCOCC5)sc4c3)C2)c2cc(F)cnc21` (stereo not drawn) [Example 82, 4-(6-(3-(5-fluoro-1-methyl-1H-pyrrolo[2,3-b]pyridin-3-yl)pyrrolidin-1-yl)benzo[d]thiazol-2-yl)morpholine]: the EC50 was under 1000 nM.

With `Cn1cc(C2CCN(c3ccc4nc(N5CCOCC5)sc4c3)C2)c2cc(F)cnc21` (stereo not drawn) [Example 83, 4-(6-(3-(5-fluoro-1-methyl-1H-pyrrolo[2,3-b]pyridin-3-yl)pyrrolidin-1-yl)benzo[d]thiazol-2-yl)morpholine], the half-maximal effective concentration (EC50) is under 1000 nM.

`Cn1cc(C2CCN(c3cnc4oc(N5CCOCC5)nc4c3)C2)c2cc(F)cnc21` (stereo not drawn) [Example 84, 6-(3-(5-fluoro-1-methyl-1H-pyrrolo[2,3-b]pyridin-3-yl)pyrrolidin-1-yl)-2-morpholinooxazolo[5,4-b]pyridine]: the EC50 is 1000 to 10000 nM.

For the compound `Cn1cc(C2CCN(c3cnc4oc(N5CCOCC5)nc4c3)C2)c2cc(F)cnc21` (stereo not drawn) [Example 85, 6-(3-(5-fluoro-1-methyl-1H-pyrrolo[2,3-b]pyridin-3-yl)pyrrolidin-1-yl)-2-morpholinooxazolo[5,4-b]pyridine], the EC50 was under 1000 nM.

`Cn1cc(C2CCN(c3cc4nc(N5CCOCC5)oc4cn3)C2)c2cc(F)cnc21` (stereo not drawn) [Example 86, 6-(3-(5-fluoro-1-methyl-1H-pyrrolo[2,3-b]pyridin-3-yl)pyrrolidin-1-yl)-2-morpholinooxazolo[5,4-c]pyridine]: the concentration for a half-maximal effect (EC50) was 1000 to 10000 nM.

Regarding `Cn1cc(C2CCN(c3cc4nc(N5CCOCC5)oc4cn3)C2)c2cc(F)cnc21` (stereo not drawn) [Example 87, 6-(3-(5-fluoro-1-methyl-1H-pyrrolo[2,3-b]pyridin-3-yl)pyrrolidin-1-yl)-2-morpholinooxazolo[5,4-c]pyridine], the EC50 was in the range of 1000 to 10000 nM.

Turning to `Cn1cc(C2CCN(c3ccc4nc(N5CCOCC5)oc4c3)C2)c2cc(F)cnc21` (stereo not drawn) [Example 88, 6-(3-(5-fluoro-1-methyl-1H-pyrrolo[2,3-b]pyridin-3-yl)pyrrolidin-1-yl)-2-morpholinobenzo[d]oxazole], the EC50 was under 1000 nM.

For `Cn1cc(C2CCN(c3ccc4nc(N5CCOCC5)oc4c3)C2)c2cc(F)cnc21` (stereo not drawn) [Example 89, 6-(3-(5-fluoro-1-methyl-1H-pyrrolo[2,3-b]pyridin-3-yl)pyrrolidin-1-yl)-2-morpholinobenzo[d]oxazole], the EC50 is under 1000 nM.

With `Cn1cc(C2CCN(c3ccc4oc(N5CCOCC5)nc4n3)C2)c2cc(F)cnc21` (stereo not drawn) [Example 90, 5-(3-(5-fluoro-1-methyl-1H-pyrrolo[2,3-b]pyridin-3-yl)pyrrolidin-1-yl)-2-morpholinooxazolo[4,5-b]pyridine], the EC50 is under 1000 nM.

On to `Cn1cc(C2CCN(c3ccc4oc(N5CCOCC5)nc4n3)C2)c2cc(F)cnc21` (stereo not drawn) [Example 91, 5-(3-(5-fluoro-1-methyl-1H-pyrrolo[2,3-b]pyridin-3-yl)pyrrolidin-1-yl)-2-morpholinooxazolo[4,5-b]pyridine], for which the concentration giving a half-maximal response (EC50) is under 1000 nM.

Consider `COc1cccc2c(C3CCN(c4ccc5oc(N6CCOCC6)nc5c4)CC3)n[nH]c12` [Example 92, 5-(4-(7-methoxy-1H-indazol-3-yl)piperidin-1-yl)-2-morpholinobenzo[d]oxazole], for which the concentration for a half-maximal effect (EC50) fell in the range of 1000 to 10000 nM.

Take `Cc1cccc2[nH]nc(C3CCN(c4ccc5oc(N6CCOCC6)nc5c4)CC3)c12` [Example 93, 5-(4-(4-methyl-1H-indazol-3-yl)piperidin-1-yl)-2-morpholinobenzo[d]oxazole]: the half-maximal effective concentration (EC50) was 1000 to 10000 nM.

Take `FC1CN(c2ccc3oc(N4CCOCC4)nc3c2)CCC1c1n[nH]c2ccccc12` (stereo not drawn) [Example 94, 5-(3-fluoro-4-(1H-indazol-3-yl)piperidin-1-yl)-2-morpholinobenzo[d]oxazole]: the half-maximal effective concentration (EC50) was 1000 to 10000 nM.

Regarding `Cn1cc(C2CCN(c3ccc4sc(N5CCOCC5)nc4c3)C2)c2cc(F)cnc21` (stereo not drawn) [Example 95, 4-(5-(3-(5-fluoro-1-methyl-1H-pyrrolo[2,3-b]pyridin-3-yl)pyrrolidin-1-yl)benzo[d]thiazol-2-yl)morpholine], the half-maximal effective concentration (EC50) was 1000 to 10000 nM.

On to `COC1CCN(c2nc3cc(N4CCC(c5cn(C)c6ncc(F)cc56)C4)ccc3o2)CC1` (stereo not drawn) [Example 96, 5-(3-(5-fluoro-1-methyl-1H-pyrrolo[2,3-b]pyridin-3-yl)pyrrolidin-1-yl)-2-(4-methoxypiperidin-1-yl)benzo[d]oxazole], for which the EC50 lay in the range of 1000 to 10000 nM.

For the compound `COC1CCN(c2nc3cc(N4CCC(c5cn(C)c6ncc(F)cc56)C4)ccc3o2)CC1` (stereo not drawn) [Example 97, 5-(3-(5-fluoro-1-methyl-1H-pyrrolo[2,3-b]pyridin-3-yl)pyrrolidin-1-yl)-2-(4-methoxypiperidin-1-yl)benzo[d]oxazole], the EC50 lay within 1000 to 10000 nM.

As to `c1ccc2c(C3CCN(c4cnc5nc(N6CCOCC6)oc5c4)CC3)c[nH]c2c1` [Example 100, 6-(4-(1H-indol-3-yl)piperidin-1-yl)-2-morpholinooxazolo[4,5-b]pyridine], the half-maximal effective concentration (EC50) lay within 1000 to 10000 nM.

In the case of `Cn1cc(C2CCN(c3ccc4oc(N5CCOCC5)nc4c3)CC2)c2ncc(F)cc21` [Example 105, 5-(4-(6-fluoro-1-methyl-1H-pyrrolo[3,2-b]pyridin-3-yl)piperidin-1-yl)-2-morpholinobenzo[d]oxazole], the EC50 fell in the range of 10000 to 50000 nM.

As for `c1ccc2c(C3CCN(c4ccc5nc(N6CCOCC6)sc5n4)CC3)n[nH]c2c1` [Example 106, 4-(5-(4-(1H-indazol-3-yl)piperidin-1-yl)thiazolo[5,4-b]pyridin-2-yl)morpholine], the EC50 is 1000 to 10000 nM.

For `C1=C(c2c[nH]c3ccccc23)CCN(c2ccc3oc(N4CCOCC4)nc3c2)C1` [Example 107, 5-(4-(1H-indol-3-yl)-3,6-dihydropyridin-1(2H)-yl)-2-morpholinobenzo[d]oxazole], the EC50 was under 1000 nM.

The same assay, now with this note: flTau disaggregation EC50, ThT fluorescence; 60 nM flTau aggregates, 30 minutes at RT.
On to `Cn1cc(C2CCN(c3ccc4oc(N5CC6CC(C5)O6)nc4c3)C2)c2cc(F)cnc21` (stereo not drawn) [Example 98, 3-(5-(3-(5-fluoro-1-methyl-1H-pyrrolo[2,3-b]pyridin-3-yl)pyrrolidin-1-yl)benzo[d]oxazol-2-yl)-6-oxa-3-azabicyclo[3.1.1]heptane], for which the concentration for a half-maximal effect (EC50) is 1000 to 10000 nM.

Still in this assay, the particulars now being: read-out: flTau disaggregation EC50; ThT fluorescence; 60 nM flTau aggregates, 30 minutes at RT.
As to `Cn1cc(C2CCN(c3ccc4oc(N5CC6CC(C5)O6)nc4c3)C2)c2cc(F)cnc21` (stereo not drawn) [Example 99, 3-(5-(3-(5-fluoro-1-methyl-1H-pyrrolo[2,3-b]pyridin-3-yl)pyrrolidin-1-yl)benzo[d]oxazol-2-yl)-6-oxa-3-azabicyclo[3.1.1]heptane], the 50% effective concentration (EC50) fell in the range of 1000 to 10000 nM.
